Experimental data taken from patent publication US7569550B2, “14 and 15 membered ring compounds” (Glaxo Group Limited, priority 2003, dated 2009).
Where a name gives a salt, the structure may show the parent alone.

What was measured:
Assay in all cases: MIC, standard broth dilution method in microtitre
Format in all cases: cell-based
[1] = tested on: erythromycin resistant strains of Streptococcus pneumoniae
Protocol: (§1) Using a standard broth dilution method in microtitre, compounds were tested for antibacterial activity. The compounds in the above examples gave minimum inhibitory concentrations (MICs) less than 1 microgram per millilitre against erythromycin-sensitive and erythromycin-resistant strains of Streptococcus pneumoniae and Streptococcus pyogenes.

[2] = tested on: erythromycin resistant strains of Streptococcus pyogenes
Protocol: as §1

[3] = tested on: S. aureus Smith ATCC 13709; conditions: Staphylococcus aureus, ATCC13709
Protocol: as §1
(§2) In addition, the MIC (μg/ml) of test compounds against various organisms was determined including:
(§3) S. aureus Smith ATCC 13709, S. pneumoniae SP030, S. pyogenes 3565, E. faecalis ATCC 29212, H. influenzae ATCC 49247, M. catarrhalis ATCC 23246.

E. faecalis ATCC 29212 = conditions: Enterococcus faecalis, ATCC29212
Protocol: as §1, §2, §3

S. pneumoniae SP030 = conditions: Streptococcus pneumoniae
Protocol: as §1, §2, §3

S. pyogenes 3565 = conditions: Streptococcus pyogenes
Protocol: as §1, §2, §3

Measured: MIC

CC[C@@H]1OC(=O)[C@H](C)[C@H](O[C@@H]2C[C@](C)(OC)[C@H](OCCCNCCOc3ccc4c(c3)c(=O)c(C(=O)O)cn4CC)[C@H](C)O2)[C@@H](C)[C@H](O[C@H]2O[C@@H](C)C[C@@H](N(C)C)[C@H]2O)[C@](C)(OC)C[C@H](C)C(=O)[C@H](C)[C@H]2OC(=O)O[C@@]12C [Example 3, 4″-O-{3-[2-(3-Carboxy-1-ethyl-4-oxo-1,4-dihydro-quinolin-6-yloxy)-ethylamino]-propyl}-6-O-methyl-erythromycin A 11,12-carbonate bis trifluoroacetate]
≤ 1 mg/L: [1] | [2]

CC[C@@H]1OC(=O)[C@H](C)[C@H](O[C@@H]2C[C@](C)(OC)[C@H](OCCCNCCCc3ccc4c(c3)c(=O)c(C(=O)O)cn4CC)[C@H](C)O2)[C@@H](C)[C@H](O[C@H]2O[C@@H](C)C[C@@H](N(C)C)[C@H]2O)[C@](C)(OC)C[C@H](C)C(=O)[C@H](C)[C@H](O)[C@@]1(C)O [Example 5, 4″-O-{3-[3-(3-Carboxy-1-ethyl-4-oxo-1,4-dihydro-quinolin-6-yl)-propylamino]-propyl}-6-O-methyl-erythromycin A bisformate]
≤ 1 mg/L: [3] | E. faecalis ATCC 29212 | S. pneumoniae SP030 | S. pyogenes 3565

CC[C@@H]1OC(=O)[C@H](C)[C@H](O[C@@H]2C[C@](C)(OC)[C@H](OCCCNCCCc3ccc4c(c3)c(=O)c(C(=O)O)cn4CC)[C@H](C)O2)[C@@H](C)[C@H](O[C@H]2O[C@@H](C)C[C@@H](N(C)C)[C@H]2O)[C@](C)(OC)C[C@H](C)C(=O)[C@H](C)[C@H]2N(C)C(=O)O[C@@]12C [Example 7, 4″-O-{3-[2-(3-Carboxy-1-ethyl-4-oxo-1,4-dihydro-quinolin-6-yl)-propylamino]-propyl}-6-O-methyl-11-desoxy-11-(R)-methylamino-erythromycin A 11,12-carbamate formate]
≤ 1 mg/L: all assays above

CC[C@@H]1OC(=O)[C@H](C)[C@H](O[C@@H]2C[C@](C)(OC)[C@H](OCCCNCCCc3ccc4c(c3)c(=O)c(C(=O)O)cn4CC)[C@H](C)O2)[C@@H](C)[C@H](O[C@H]2O[C@@H](C)C[C@@H](N(C)C)[C@H]2O)[C@](C)(OC)C[C@H](C)C(=O)[C@H](C)[C@H]2OC(=O)O[C@@]12C [Example 9, 4″-O-{3-[3-(3-Carboxy-1-ethyl-4-oxo-1,4-dihydro-quinolin-6-yl)propylamino]-propyl}-6-O-methyl-erythromycin A 11,12-carbonate formate]
≤ 1 mg/L: [1] | [2]

CC[C@@H]1OC(=O)[C@H](C)[C@H](O[C@@H]2C[C@](C)(OC)[C@H](OCCCNCCNc3cc4c(=O)c(C(=O)O)cn(C5CC5)c4cc3Cl)[C@H](C)O2)[C@@H](C)[C@H](O[C@H]2O[C@@H](C)C[C@@H](N(C)C)[C@H]2O)[C@](C)(OC)C[C@H](C)C(=O)[C@H](C)[C@H]2OC(=O)O[C@@]12C [Example 10, 4″-O-{3-[2-(3-Carboxy-7-chloro-1-cyclopropyl-4-oxo-1,4-dihydro-quinolin-6-ylamino)ethylamino]-propyl}-6-O-methyl-erythromycin A 11,12-carbonate formate]
≤ 1 mg/L: [1] | [2]

CC[C@@H]1OC(=O)[C@H](C)[C@H](O[C@@H]2C[C@](C)(OC)[C@H](OCCCNCCNc3cc4c(cc3F)c(=O)c(C(=O)O)cn4C3CC3)[C@H](C)O2)[C@@H](C)[C@H](O[C@H]2O[C@@H](C)C[C@@H](N(C)C)[C@H]2O)[C@](C)(OC)C[C@H](C)C(=O)[C@H](C)[C@H]2OC(=O)O[C@@]12C [Example 11, 4″-O-{3-[2-(3-Carboxy-1-cyclopropyl-6-fluoro-4-oxo-1,4-dihydro-quinolin-7-ylamino)ethylamino]-propyl}-6-O-methyl-erythromycin A 11,12-carbonate formate]
≤ 1 mg/L: [1] | [2]

CC[C@@H]1OC(=O)[C@H](C)[C@H](O[C@@H]2C[C@](C)(OC)[C@H](OCCCNCCNc3nc4c(cc3F)c(=O)c(C(=O)O)cn4CC)[C@H](C)O2)[C@@H](C)[C@H](O[C@H]2O[C@@H](C)C[C@@H](N(C)C)[C@H]2O)[C@](C)(OC)C[C@H](C)C(=O)[C@H](C)[C@H]2OC(=O)O[C@@]12C [Example 12, 4″-O-{3-[2-(3-Carboxy-1-ethyl-6-fluoro-4-oxo-1,4-dihydro-[1,8]naphthyridin-7-ylamino)ethylamino]-propyl}-6-O-methyl-erythromycin A 11,12-carbonate formate]
≤ 1 mg/L: [1] | [2]

CC[C@H]1OC(=O)[C@H](C)[C@@H](O[C@H]2C[C@@](C)(OC)[C@@H](OCCCNCCOc3cc4c5c(c3)c(=O)c(C(=O)O)cn5CCC4)[C@H](C)O2)[C@H](C)[C@@H](O[C@@H]2O[C@H](C)CC(N(C)C)[C@H]2O)[C@](C)(OC)C[C@@H](C)C(=O)[C@@H](C)[C@H]2NC(=O)O[C@@]21C (stereo partly drawn) [Example 22, 4″-O-{3-[2-(2-Carboxy-1-oxo-6,7-dihydro-1H,5H-pyrido[3,2,1-ij]quinolin-9-yloxy)-ethylamino]-propyl}-6-O-methyl-11-desoxy-11-(R)-amino-erythromycin A 11,12-carbamate formate]
≤ 1 mg/L: all assays above

CC[C@H]1OC(=O)[C@H](C)[C@@H](O[C@H]2C[C@@](C)(OC)[C@@H](OCCCNCCCc3cnc4c(c3)c(=O)c(C(=O)O)cn4CC)[C@H](C)O2)[C@H](C)[C@@H](O[C@@H]2O[C@H](C)C[C@H](N(C)C)[C@H]2O)[C@](C)(OC)C[C@@H](C)C(=O)[C@@H](C)[C@H]2NC(=O)O[C@@]21C [Example 24, 4″-O-{3-[3-(3-Carboxy-1-ethyl-4-oxo-1,4-dihydro-6-[1,8]naphthryidinyl)-propylamino]-propyl}-6-O-methyl-11-desoxy-11-(R)-amino-erythromycin A 11,12-carbamate formate]
≤ 1 mg/L: [1] | [2]

CCc1cc(C(=O)O)c(=O)n2ccc(NCCNCCCO[C@H]3[C@H](C)O[C@@H](O[C@H]4[C@H](C)[C@@H](O[C@@H]5O[C@H](C)C[C@H](N(C)C)[C@H]5O)[C@](C)(OC)C[C@@H](C)C(=O)[C@@H](C)[C@H]5NC(=O)O[C@]5(C)[C@@H](CC)OC(=O)[C@@H]4C)C[C@@]3(C)OC)cc12 [Example 26, 4″-O-{3-[2-(3-Carboxy-1-ethyl-4-oxo-4-H-quinolizin-7-ylamino)-ethylamino]-propyl}-6-O-methyl-11-desoxy-11-(R)-amino-erythromycin A 11,12-carbamate formate]
≤ 1 mg/L: [1] | [2]
